pIC50: −log10 of the molar value.
Each compound was assayed against T1, JAK3 (Homo sapiens, UniProt P52333) (assay: JAK3 kinobeads assay). Conditions: cell lysate, dot blot with JAK3 specific antibody.
T1 construct: endogenous in cells
T1 sequence (P52333 1-1124): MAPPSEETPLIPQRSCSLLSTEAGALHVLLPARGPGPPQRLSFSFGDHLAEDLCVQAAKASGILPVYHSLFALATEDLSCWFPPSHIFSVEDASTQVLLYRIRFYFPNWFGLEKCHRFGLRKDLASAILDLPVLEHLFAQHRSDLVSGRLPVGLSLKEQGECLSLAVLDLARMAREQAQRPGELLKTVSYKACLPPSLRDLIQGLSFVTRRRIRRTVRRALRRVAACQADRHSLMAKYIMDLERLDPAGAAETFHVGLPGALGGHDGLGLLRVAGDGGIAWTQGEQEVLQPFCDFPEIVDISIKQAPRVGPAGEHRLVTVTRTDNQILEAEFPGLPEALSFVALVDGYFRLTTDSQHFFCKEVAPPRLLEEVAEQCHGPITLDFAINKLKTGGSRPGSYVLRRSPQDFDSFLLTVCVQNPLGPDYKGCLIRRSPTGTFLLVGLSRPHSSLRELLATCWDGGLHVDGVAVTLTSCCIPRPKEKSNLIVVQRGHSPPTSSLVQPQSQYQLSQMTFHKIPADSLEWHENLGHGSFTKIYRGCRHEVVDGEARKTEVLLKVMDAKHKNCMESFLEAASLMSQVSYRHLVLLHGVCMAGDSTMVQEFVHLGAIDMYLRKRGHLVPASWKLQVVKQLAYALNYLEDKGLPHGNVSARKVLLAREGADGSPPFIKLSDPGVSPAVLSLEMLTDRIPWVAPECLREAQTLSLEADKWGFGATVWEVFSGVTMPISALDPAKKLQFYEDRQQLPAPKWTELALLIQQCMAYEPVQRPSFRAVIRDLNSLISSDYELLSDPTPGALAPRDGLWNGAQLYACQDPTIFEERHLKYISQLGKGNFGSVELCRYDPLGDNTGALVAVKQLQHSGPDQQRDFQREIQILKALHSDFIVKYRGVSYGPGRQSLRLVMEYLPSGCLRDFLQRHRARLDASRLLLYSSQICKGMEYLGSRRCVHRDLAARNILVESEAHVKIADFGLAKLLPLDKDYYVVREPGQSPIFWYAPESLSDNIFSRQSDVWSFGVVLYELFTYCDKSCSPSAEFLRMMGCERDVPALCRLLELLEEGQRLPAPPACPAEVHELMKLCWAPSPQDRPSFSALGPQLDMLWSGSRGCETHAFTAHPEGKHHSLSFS
Assay type: binding
Description: The compounds of the present invention as described in the previous examples were tested in the ZAP-70 kinobeads assay as described (EP-A 1862802 and WO-A 2007/137867). Briefly, test compounds (at various concentrations) and the affinity matrix with the immobilized aminopyrido-pyrimidine ligand 24 are added to cell lysate aliquots and allowed to bind to the proteins in the lysate sample. After the incubation time the beads with captured proteins are separated from the lysate. Bound proteins are then eluted and the presence ZAP-70 is detected and quantified using a specific antibody in a dot blot procedure and the Odyssey infrared detection system.
Compounds were tested by the procedure described in Example 102 but using a JAK3 specific antibody (Cell Signaling Technology, Inc., Danvers, US, catalogue number 3775) instead of a ZAP70 antibody.

| pIC50 | SMILES |
| --- | --- |
| 5.00 to 6.00 | CCS(=O)(=O)Nc1ccccc1Nc1nc(Nc2cc(C)n(C)n2)ncc1F [Example 61, N-(2-((2-((1,5-dimethyl-1H-pyrazol-3-yl)amino)-5-fluoropyrimidin-4-yl)amino)phenyl)ethanesulfonamide] |
| 6.00 to 7.00 | CCS(=O)(=O)Nc1ccccc1Nc1nc(Nc2cnn(C)c2)ncc1F [Example 62, N-(2-((5-fluoro-2-((1-methyl-1H-pyrazol-4-yl)amino)pyrimidin-4-yl)amino)phenyl)ethanesulfonamide] |
| 5.00 to 6.00 | CCS(=O)(=O)Nc1ccccc1Nc1nc(Nc2ccn(C)n2)ncc1F [Example 63, N-(2-((5-fluoro-2-((1-methyl-1H-pyrazol-3-yl)amino)pyrimidin-4-yl)amino)phenyl)ethanesulfonamide] |
| ≥ 7.00 | CS(=O)(=O)Nc1ccccc1Nc1nc(Nc2cnn(CCCC#N)c2)ncc1Cl [Example 65, N-(2-((5-chloro-2-((1-(3-cyanopropyl)-1H-pyrazol-4-yl)amino)pyrimidin-4-yl)amino)phenyl)methanesulfonamide] |
| ≥ 7.00 | CS(=O)(=O)Nc1ccccc1Nc1nc(Nc2cnn(CCCC#N)c2)ncc1F [Example 66, N-(2-((2-((1-(3-cyanopropyl)-1H-pyrazol-4-yl)amino)-5-fluoropyrimidin-4-yl)amino)phenyl)methanesulfonamide] |
| ≥ 7.00 | Cn1ccc(Nc2ncc(Cl)c(Nc3cccc(F)c3NS(C)(=O)=O)n2)n1 [Example 70, N-(2-((5-chloro-2-((1-methyl-1H-pyrazol-3-yl)amino)pyrimidin-4-yl)amino)-6-fluorophenyl)methanesulfonamide] |
| 6.00 to 7.00 | Cc1nn(CC(F)F)cc1Nc1ncc(F)c(Nc2ccccc2NS(C)(=O)=O)n1 [Example 72, N-(2-((2-((1-(2,2-difluoroethyl)-3-methyl-1H-pyrazol-4-yl)amino)-5-fluoropyrimidin-4-yl)amino)phenyl)methanesulfonamide] |
| 6.00 to 7.00 | COc1nn(CC(F)F)cc1Nc1ncc(F)c(Nc2ccccc2NS(C)(=O)=O)n1 [Example 73, N-(2-((2-((1-(2,2-difluoroethyl)-3-methoxy-1H-pyrazol-4-yl)amino)-5-fluoropyrimidin-4-yl)amino)phenyl)methanesulfonamide] |
| 5.00 to 6.00 | COc1nn(CC(F)(F)F)cc1Nc1ncc(F)c(Nc2ccccc2NS(C)(=O)=O)n1 [Example 74, N-(2-((5-fluoro-2-((3-methoxy-1-(2,2,2-trifluoroethyl)-1H-pyrazol-4-yl)amino)pyrimidin-4-yl)amino)phenyl)methanesulfonamide] |

The remaining lines, values behind:

| SMILES | pIC50 |
| --- | --- |
| COc1ccc(Nc2nc(Nc3cc(C4CC4)nn3C)ncc2Cl)c(NS(C)(=O)=O)c1 [Example 9, N-(2-(5-chloro-2-(3-cyclopropyl-1-methyl-1H-pyrazol-5-ylamino)pyrimidin-4-ylamino)-5-methoxyphenyl)methanesulfonamide] | 6.00 to 7.00 |
| COc1ccc(Nc2nc(Nc3cc(C(C)(C)C)nn3C)ncc2Cl)c(NS(C)(=O)=O)c1 [Example 10, N-(2-(2-(3-tert-butyl-1-methyl-1H-pyrazol-5-ylamino)-5-chloropyrimidin-4-ylamino)-5-methoxyphenyl)methanesulfonamide] | 5.00 to 6.00 |
| CS(=O)(=O)Nc1ccccc1Nc1nc(Nc2cn[nH]c2)ncc1Cl [Example 25, N-(2-(2-(1H-pyrazol-4-ylamino)-5-chloropyrimidin-4-ylamino)phenyl)methanesulfonamide] | ≥ 7.00 |
| CCCn1ccc(Nc2ncc(Cl)c(Nc3ccccc3NS(C)(=O)=O)n2)n1 [Example 46, N-(2-((5-chloro-2-((1-propyl-1H-pyrazol-3-yl)amino)pyrimidin-4-yl)amino)phenyl)methanesulfonamide] | ≥ 7.00 |
| COc1ccc(Nc2nc(Nc3cc(C)n(C)n3)ncc2F)c(NS(C)(=O)=O)c1 [Example 47, N-(2-((2-((1,5-dimethyl-1H-pyrazol-3-yl)amino)-5-fluoropyrimidin-4-yl)amino)-5-methoxyphenyl)methanesulfonamide] | 6.00 to 7.00 |
| COc1ccc(Nc2nc(Nc3ccn(C(C)C)n3)ncc2F)c(NS(C)(=O)=O)c1 [Example 48, N-(2-((5-fluoro-2-((1-isopropyl-1H-pyrazol-3-yl)amino)pyrimidin-4-yl)amino)-5-methoxyphenyl)methanesulfonamide] | 6.00 to 7.00 |
| CC(C)n1ccc(Nc2ncc(Br)c(Nc3ccccc3NS(C)(=O)=O)n2)n1 [Example 49, N-(2-((5-bromo-2-((1-isopropyl-1H-pyrazol-3-yl)amino)pyrimidin-4-yl)amino)phenyl)methanesulfonamide] | ≥ 7.00 |
| CS(=O)(=O)Nc1ccccc1Nc1nc(Nc2ccon2)ncc1Br [Example 50, N-(2-((5-bromo-2-(isoxazol-3-ylamino)pyrimidin-4-yl)amino)phenyl)methanesulfonamide] | ≥ 7.00 |
| Cc1cc(Nc2ncc(Br)c(Nc3ccccc3NS(C)(=O)=O)n2)nn1C [Example 51, N-(2-((5-bromo-2-((1,5-dimethyl-1H-pyrazol-3-yl)amino)pyrimidin-4-yl)amino)phenyl)methanesulfonamide] | ≥ 7.00 |
| COCCn1cc(Nc2ncc(Cl)c(Nc3ccccc3NS(C)(=O)=O)n2)cn1 [Example 52, N-(2-((5-chloro-2-((1-(2-methoxyethyl)-1H-pyrazol-4-yl)amino)pyrimidin-4-yl)amino)phenyl)methanesulfonamide] | ≥ 7.00 |
| Cn1ccc(Nc2ncc(Cl)c(Nc3ccccc3NS(=O)(=O)C3CC3)n2)n1 [Example 53, N-(2-((5-chloro-2-((1-methyl-1H-pyrazol-3-yl)amino)pyrimidin-4-yl)amino)phenyl)cyclopropanesulfonamide] | 6.00 to 7.00 |
| CC(C)n1ccc(Nc2ncc(Cl)c(Nc3ccccc3NS(=O)(=O)C3CC3)n2)n1 [Example 54, N-(2-((5-chloro-2-((1-isopropyl-1H-pyrazol-3-yl)amino)pyrimidin-4-yl)amino)phenyl)cyclopropanesulfonamide] | 5.00 to 6.00 |
| Cc1cc(Nc2ncc(Cl)c(Nc3ccccc3NS(=O)(=O)C3CC3)n2)nn1C [Example 55, N-(2-((5-chloro-2-((1,5-dimethyl-1H-pyrazol-3-yl)amino)pyrimidin-4-yl)amino)phenyl)cyclopropanesulfonamide] | 6.00 to 7.00 |
| CCS(=O)(=O)Nc1ccccc1Nc1nc(Nc2ccn(C)n2)ncc1Cl [Example 56, N-(2-((5-chloro-2-((1-methyl-1H-pyrazol-3-yl)amino)pyrimidin-4-yl)amino)phenyl)ethanesulfonamide] | 6.00 to 7.00 |
| CCS(=O)(=O)Nc1ccccc1Nc1nc(Nc2cnn(C)c2)ncc1Cl [Example 57, N-(2-((5-chloro-2-((1-methyl-1H-pyrazol-4-yl)amino)pyrimidin-4-yl)amino)phenyl)ethanesulfonamide] | ≥ 7.00 |
| Cn1cc(Nc2ncc(Cl)c(Nc3ccccc3NS(=O)(=O)C3CC3)n2)cn1 [Example 58, N-(2-((5-chloro-2-((1-methyl-1H-pyrazol-4-yl)amino)pyrimidin-4-yl)amino)phenyl)cyclopropanesulfonamide] | ≥ 7.00 |
| CCn1nc(Nc2ncc(Cl)c(Nc3ccccc3NS(C)(=O)=O)n2)cc1C [Example 59, N-(2-((5-chloro-2-((1-ethyl-5-methyl-1H-pyrazol-3-yl)amino)pyrimidin-4-yl)amino)phenyl)methanesulfonamide] | ≥ 7.00 |

Source: patent US20120172384A1, “HETEROCYCLYLAMINOPYRIMIDINES AS KINASE INHIBITORS” (priority 2009, published 2012)
